Where only a bound is given, the exact number is not on record here.

Data set [1] has as its target T1, GLP-1R (Homo sapiens, UniProt P43220). In words: GLP-1R activation, CRE-luciferase reporter gene assay in HEK 293 cells. It counts as cell-based.
The subject of a further data set is DIO mice. In words: Body weight in diet-induced obese. It counts as in vivo. Particulars: DIO male mice.
Another data set has as its system ERα and ERβ. Type of data set: cell-based, human.
A further data set has as its system MCF-7 xenografts. In words: Tumor growth in MCF-7 xenograft OVX nude mice. It counts as in vivo. Particulars: for volume of harvested tumors / weight of harvested tumors: after 9 weeks of treatment, mean ± s.e.m.; for tumor incidence at day 68: conjugates 4,000 μg per kg body weight daily, estradiol as s.c. pellet.
Data set [2] concerns the target T1, GLP-1R. Kind of data set: GLP-1R competitive binding.
Data set [3] can be described thus: Conjugate degradation analysis in human plasma. It counts as in vitro ADME. Particulars: pH 7.4, 37 °C.

T1 sequence (P43220 24-463, species assumed): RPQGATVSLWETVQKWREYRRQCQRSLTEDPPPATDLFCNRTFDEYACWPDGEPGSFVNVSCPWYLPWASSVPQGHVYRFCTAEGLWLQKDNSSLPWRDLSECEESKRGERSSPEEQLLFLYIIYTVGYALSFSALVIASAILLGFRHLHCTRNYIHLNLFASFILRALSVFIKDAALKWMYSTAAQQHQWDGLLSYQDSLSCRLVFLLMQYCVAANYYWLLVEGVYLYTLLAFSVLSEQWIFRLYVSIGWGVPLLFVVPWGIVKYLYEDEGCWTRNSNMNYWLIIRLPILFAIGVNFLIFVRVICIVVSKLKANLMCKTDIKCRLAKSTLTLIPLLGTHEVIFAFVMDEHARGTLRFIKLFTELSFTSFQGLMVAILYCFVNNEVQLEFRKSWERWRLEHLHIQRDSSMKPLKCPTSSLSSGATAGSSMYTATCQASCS

Regarding `CCCCCCCCCCCCCCCC(=O)N[C@@H](CCC(=O)N[C@@H](CCC(=O)NCCCC[C@H](NC(=O)[C@H](CO)NC(=O)[C@@H]1CCCN1C(=O)[C@@H]1CCCN1C(=O)[C@@H]1CCCN1C(=O)[C@H](C)NC(=O)CNC(=O)[C@H](CO)NC(=O)[C@H](CO)NC(=O)[C@@H]1CCCN1C(=O)CNC(=O)CNC(=O)[C@H](CCCCN)NC(=O)[C@@H](NC(=O)[C@H](CC(C)C)NC(=O)[C@H](Cc1c[nH]c2ccccc12)NC(=O)[C@H](C)NC(=O)[C@@H](NC(=O)[C@H](Cc1ccccc1)NC(=O)[C@H](CCC(=O)O)NC(=O)[C@H](CCCCN)NC(=O)[C@H](C)NC(=O)[C@H](C)NC(=O)[C@H](CCC(N)=O)NC(=O)[C@H](CCC(=O)O)NC(=O)[C@H](CCC(=O)O)NC(=O)[C@H](CC(C)C)NC(=O)[C@H](Cc1ccc(O)cc1)NC(=O)[C@H](CO)NC(=O)[C@H](CO)NC(=O)[C@@H](NC(=O)[C@H](CC(=O)O)NC(=O)[C@H](CO)NC(=O)[C@@H](NC(=O)[C@H](Cc1ccccc1)NC(=O)[C@@H](NC(=O)CNC(=O)[C@H](CCC(=O)O)NC(=O)C(C)(C)NC(=O)[C@@H](N)Cc1c[nH]cn1)[C@@H](C)O)[C@@H](C)O)C(C)C)[C@@H](C)CC)C(C)C)C(N)=O)C(=O)O)C(=O)O` [acylated GLP-1 analog], the “fold lower GLP-1R potency in presence of plasma” value at GLP-1R [1] (20% human plasma versus no plasma) is recorded as ~ 400 fold. Moreover, in the data set with DIO mice (400 μg per kg body weight daily s.c., 14 d (Fig. 5d)), the body weight loss stood at 30.1%.

As for `C[C@]12CC[C@@H]3c4ccc(O)cc4CC[C@H]3[C@@H]1CC[C@@H]2O` [estradiol, 17β-estradiol, reference compound], in the data set with ERα and ERβ (read-out: EC50, intracellular estrogen activity (ERE-mediated transcriptional activity), mean ± s.d.), the EC50 is 4 ± 1 pM. In addition, in the data set with MCF-7 xenografts, the “volume of harvested tumors” value is on record as 1,461.2 ± 584.3 mm^3, the “weight of harvested tumors” value is reported as 779.7 ± 257.7 mg and the “tumor incidence at day 68” value is listed as 100%.

In the case of `CC[C@H](C)[C@H](NC(=O)[C@H](Cc1ccccc1)NC(=O)[C@H](CCC(=O)O)NC(=O)[C@H](CCCCN)NC(=O)[C@H](C)NC(=O)[C@H](C)NC(=O)[C@H](CCC(N)=O)NC(=O)[C@H](CCC(=O)O)NC(=O)[C@H](CCC(=O)O)NC(=O)[C@H](CC(C)C)NC(=O)[C@H](Cc1ccc(O)cc1)NC(=O)[C@H](CO)NC(=O)[C@H](CO)NC(=O)[C@@H](NC(=O)[C@H](CC(=O)O)NC(=O)[C@H](CO)NC(=O)[C@@H](NC(=O)[C@H](Cc1ccccc1)NC(=O)[C@@H](NC(=O)CNC(=O)[C@H](CCC(=O)O)NC(=O)C(C)(C)NC(=O)[C@@H](N)Cc1c[nH]cn1)[C@@H](C)O)[C@@H](C)O)C(C)C)C(=O)N[C@@H](C)C(=O)N[C@@H](Cc1c[nH]c2ccccc12)C(=O)N[C@@H](CC(C)C)C(=O)N[C@H](C(=O)N[C@@H](CCCCN)C(=O)NCC(=O)NCC(=O)N1CCC[C@H]1C(=O)N[C@@H](CO)C(=O)N[C@@H](CO)C(=O)NCC(=O)N[C@@H](C)C(=O)N1CCC[C@H]1C(=O)N1CCC[C@H]1C(=O)N1CCC[C@H]1C(=O)N[C@@H](CO)C(=O)N[C@@H](CCCCNC(=O)CCC(=O)Oc1ccc2c(c1)CC[C@@H]1[C@@H]2CC[C@]2(C)C(=O)CC[C@@H]12)C(N)=O)C(C)C` [labile GLP-1–estrogen conjugate], the “intracellular estrogen activity compared to estrone” value in the data set with ERα and ERβ (cells do not express GLP-1R) is reported as “comparable intracellular estrogen activity to estrone”. Further, the “GLP-1R binding affinity (IC50) compared to parent peptide” value at GLP-1R [2] was “matched the parent peptides”. The “GLP-1R biochemical signaling potency (EC50) compared to parent peptide” value at GLP-1R [1] is recorded as “matched the parent peptides”. The “time to complete degradation with release of estrogen” value in data set [3] is on record as no more than 6 h. Besides, the “decrease in body weight” value in the data set with DIO mice (400 μg per kg body weight daily s.c., 2 weeks) was 7.5%. Moreover, the “body weight at end of treatment” value in the data set on DIO mice (400 μg per kg body weight daily s.c., 2 weeks, mean ± s.e.m.) is recorded as 50.0 ± 1.1 g. In the data set on DIO mice (400 μg per kg body weight, mean ± s.e.m.), the “body weight at start of treatment” value is 54.1 ± 0.9 g. In the data set with MCF-7 xenografts, the “volume of harvested tumors” value was found to be 92.1 ± 23.8 mm^3, the “weight of harvested tumors” value is recorded as 37.0 ± 9.0 mg and the “tumor incidence at day 68” value stood at 100%.

The record behind these values is PMC3757949 (Nature medicine, 2012).
